Our source for the IC50 values is US9187465B2, “Oxazole tyrosine kinase inhibitors” (Sareum Limited, priority 2007, dated 2015).

One experiment concerns the target T1, human FLT4 (Homo sapiens, UniProt P35916).
T1 construct: a construct expressing the human FLT4 (789-1207) with an amino terminal GST tag; host or cells: Sf9 insect cells (baculovirus)
Description: FLT4 kinase assay (DELFIA enzyme inhibition). To be noted: read-out: FLT4 IC50. The experiment is classed as biochemical. How it is done: A GST-kinase fusion protein of 70 KDa was produced using sf9 baculovirus expression system, with a construct expressing the human FLT4 (789-1207) with an amino terminal GST tag. The protein was purified by affinity chromatography using glutathione-agarose followed by separation on a gel filtration column.
FLT4 enzyme activity is determined using a Dissociation Enhanced Lanthanide Fluorescent Immunoassay (DELFIA) with a peptide substrate derived from the MET (Tyr 1253) peptide […] with a core sequence […].
The amount of phosphorylated peptide produced is detected by means of a phospho-Tyrosine specific Europium-labelled antibody using Time-Resolved Fluorescence at Excitation 360-35 nm and Emission 620-35 nm.
Assay reactions are set up in a 25 uL final volume on a 96 well plate. […] The reaction is allowed to proceed for 30 minutes at room temperature before stopping with 100 uL Stop solution comprising of 100 mM EDTA, 1×BSA blocker in TBS (Perbio) and 0.05% Surfact-Amps20 (Perbio).
The stopped reaction is transferred to a black 96-well Neutravidin-coated plate (Perbio) and incubated for 30 minutes to capture the biotinylated peptide substrate. After washing wells 3 times with 200 uL TBS/T buffer, Anti-Phospho-Tyr-100 antibody labelled with Eu—N1 (Perkin Elmer AD0159) is added to all wells for 60 minutes at room temperature. After a repeat washing step, DELFIA Enhancement solution (Perkin Elmer) is added to all wells for 5 minutes and the fluorescence measured on a plate reader Analyst HT (Molecular Devices).
The % inhibition of the activity is calculated and plotted in order to determine the concentration of test compound required to inhibit 50% of the enzyme activity (IC50).

Another experiment addresses T2, human Aurora A (Homo sapiens, UniProt O14965).
T2 construct: Histidine tag (N); host or cells: Sf9 insect cells (baculovirus)
T2 sequence (O14965 1-403): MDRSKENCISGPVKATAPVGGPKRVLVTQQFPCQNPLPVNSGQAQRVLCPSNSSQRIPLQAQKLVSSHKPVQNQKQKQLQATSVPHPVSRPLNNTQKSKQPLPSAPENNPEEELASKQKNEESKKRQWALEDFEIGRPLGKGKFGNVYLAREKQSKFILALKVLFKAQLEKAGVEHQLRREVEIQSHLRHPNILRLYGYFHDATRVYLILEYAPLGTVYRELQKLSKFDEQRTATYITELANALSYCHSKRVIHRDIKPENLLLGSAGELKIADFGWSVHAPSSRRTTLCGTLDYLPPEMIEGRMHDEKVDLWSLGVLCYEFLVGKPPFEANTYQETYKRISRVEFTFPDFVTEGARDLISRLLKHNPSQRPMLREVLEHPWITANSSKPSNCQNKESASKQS
Description: Aurora A kinase assay (DELFIA enzyme inhibition). It counts as biochemical. Particulars: read-out: Aurora A IC50. How it is done:
The protein was purified by one-step affinity chromatography using nickel-agarose […]
Assay reactions are set up in a 25 uL final volume on a 96 well plate. […] The reaction is allowed to proceed for 30 minutes at room temperature before stopping with 100 μL Stop solution comprising of 100 mM EDTA, 1×BSA blocker in TBS (Perbio) and 0.05% Surfact-Amps20 (Perbio).
The stopped reaction is transferred to a black 96-well Neutravidin-coated plate (Perbio) and incubated for 30 minutes to capture the biotinylated peptide substrate. […] After repeating the washing step, the plate is further incubated for one hour with Europium-labelled anti-rabbit antibody (Perkin Elmer AD0105). The wash step is repeated for a final time before DELFIA Enhancement solution (Perkin Elmer) is added to all wells for 5 minutes and the fluorescence measured on a plate reader Analyst HT (Molecular Devices).

pIC50: −log10 of the molar value. Structures can show the parent of a compound that is named as a salt. A value given as a limit tells only on which side of the number the result lay.

T1 sequence (P35916 789-1207): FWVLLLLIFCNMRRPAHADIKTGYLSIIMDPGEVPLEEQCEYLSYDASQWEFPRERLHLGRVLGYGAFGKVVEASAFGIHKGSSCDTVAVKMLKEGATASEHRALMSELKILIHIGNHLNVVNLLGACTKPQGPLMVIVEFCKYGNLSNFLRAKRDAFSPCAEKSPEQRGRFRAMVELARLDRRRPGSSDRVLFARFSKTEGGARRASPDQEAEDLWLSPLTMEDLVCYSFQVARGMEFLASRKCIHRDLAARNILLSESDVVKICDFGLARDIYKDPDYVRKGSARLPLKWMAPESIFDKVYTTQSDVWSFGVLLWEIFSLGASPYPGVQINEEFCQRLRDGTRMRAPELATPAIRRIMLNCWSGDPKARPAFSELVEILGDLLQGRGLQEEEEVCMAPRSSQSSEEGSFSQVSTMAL

For the compound `COc1ccc(-c2nc(-c3ccccc3)[nH]c2C(N)=O)cc1` [Example A-1, 4-(4-methoxyphenyl)-2-phenyl-1H-imidazole-5-carboxamide], the pIC50 on human FLT4 was above 4.00.
`COc1ccc(-c2nc(-c3ccc(Br)cc3F)[nH]c2C(N)=O)cc1` [Example A-9, 2-(4-bromo-2-fluorophenyl)-4-(4-methoxyphenyl)-1H-imidazole-5-carboxamide]: the pIC50 at human FLT4 was above 4.00.
`COc1ccc(-c2nc(-c3cc(OC)cc(OC)c3)[nH]c2C(N)=O)cc1` [Example A-17, 2-(3,5-dimethoxyphenyl)-4-(4-methoxyphenyl)-1H-imidazole-5-carboxamide]: at human FLT4, the pIC50 was above 4.00.
In the case of `NC(=O)c1[nH]c(-c2c(F)cccc2F)nc1-c1ccccc1F` [Example A-18, 2-(2,6-difluorophenyl)-4-(2-fluorophenyl)-1H-imidazole-5-carboxamide], the pIC50 at human Aurora A is above 5.00.
With `NC(=O)c1[nH]c(-c2c(F)cccc2F)nc1-c1ccccc1` [Example A-19, 2-(2,6-difluorophenyl)-4-phenyl-1H-imidazole-5-carboxamide], the pIC50 at human FLT4 was above 4.00.
Turning to `COc1cccc(-c2nc(-c3c(F)cccc3F)[nH]c2C(N)=O)c1` [Example A-20, 2-(2,6-difluorophenyl)-4-(3-methoxyphenyl)-1H-imidazole-5-carboxamide], at human FLT4, the negative logarithm of the IC50 (pIC50) was above 4.00.
Still for that read-out and setting: under `COc1ccc(-c2nc(-c3c(F)cccc3F)oc2C(N)=O)cc1` [Example D-1, 2-(2,6-difluorophenyl)-4-(4-methoxyphenyl)oxazole-5-carboxamide] stands above 5.00.
`NC(=O)c1nc(-c2c(F)cccc2F)oc1-c1cccs1` [Example E-1, 2-(2,6-difluorophenyl)-5-(thiophen-2-yl)oxazole-4-carboxamide]: the pIC50 on human FLT4 is above 5.00.
Same read-out and setting: under `NC(=O)c1nc(-c2c(F)cccc2F)oc1-c1ccccc1` [Example F-1, 2-(2,6-difluorophenyl)-5-phenyloxazole-4-carboxamide] stands above 5.00.
Consider `NC(=O)c1nc(-c2c(F)cccc2F)oc1-c1ccc(N2CCOCC2)cc1` [Example F-4, 2-(2,6-difluorophenyl)-5-(4-morpholinophenyl)oxazole-4-carboxamide], for which the pIC50 on human FLT4 is above 5.00.
As for `CS(=O)(=O)c1ccc(-c2oc(-c3c(F)cccc3F)nc2C(N)=O)cc1` [Example F-6, 2-(2,6-difluorophenyl)-5-(4-(methylsulfonyl)phenyl)oxazole-4-carboxamide], the pIC50 on human FLT4 was above 5.00.
On to `NC(=O)c1nc(-c2c(F)cccc2F)oc1-c1ccc(CN2CCOCC2)cc1` [Example F-20, 2-(2,6-difluorophenyl)-5-(4-(morpholinomethyl)phenyl)oxazole-4-carboxamide], for which the pIC50 on human FLT4 is above 4.00.
Still for that read-out and setting: under `NC(=O)c1nc(-c2c(F)cccc2F)oc1-c1ccc(S(N)(=O)=O)cc1` [Example F-21, 5-(4-benzenesulfonamide)-2-(2,6-difluorophenyl)oxazole-4-carboxamide] stands above 5.00; under `COc1ccc(-c2oc(-c3c(F)cccc3F)nc2C(N)=O)cc1OC` [Example F-28, 2-(2,6-difluorophenyl)-5-(3,4-dimethoxyphenyl)oxazole-4-carboxamide], above 5.00.
Regarding `NC(=O)c1nc(-c2c(F)cccc2F)oc1-c1ccc2c(c1)OCO2` [Example F-29, 5-(benzo[d][1,3]dioxol-5-yl)-2-(2,6-difluorophenyl)oxazole-4-carboxamide], at human FLT4, the pIC50 is above 4.00.
Regarding `NC(=O)c1nc(-c2c(F)cccc2F)oc1-c1cccc(C(=O)N2CCOCC2)c1` [Example F-30, 2-(2,6-Difluorophenyl)-5-(3-(morpholine-4-carbonyl)phenyl)oxazole-4-carboxamide], the pIC50 at human FLT4 was above 5.00.
For `NC(=O)c1nc(-c2c(F)cccc2F)oc1-c1cccc2ccccc12` [Example F-35, 2-(2,6-difluorophenyl)-5-(naphthalen-1-yl)oxazole-4-carboxamide], the pIC50 on human Aurora A is above 4.00.
Turning to `NC(=O)c1nc(-c2c(F)cccc2F)oc1-c1cccc2[nH]ccc12` [Example F-36, 2-(2,6-difluorophenyl)-5-(1H-indol-4-yl)oxazole-4-carboxamide], the pIC50 at human Aurora A is above 4.00.
Take `NC(=O)c1nc(-c2c(F)cccc2F)oc1-c1ccc(CNS(=O)(=O)c2ccc(F)cc2)cc1` [Example K-1, 2-(2,6-difluorophenyl)-5-(4-((4-fluorophenylsulfonamido)methyl)phenyl)oxazole-4-carboxamide]: on human FLT4, the pIC50 was above 5.00.
For `NC(=O)c1nc(-c2c(F)cccc2F)oc1-c1ccc(CNS(=O)(=O)c2ccccc2)cc1` [Example K-2, 2-(2,6-difluorophenyl)-5-(4-(phenylsulfonamidomethyl)phenyl)oxazole-4-carboxamide], the pIC50 on human FLT4 was above 5.00.
On to `NC(=O)c1nc(-c2c(F)cccc2F)oc1-c1ccc(CNC(=O)c2ccccc2)cc1` [Example L-1, 5-(4-(benzamidomethyl)phenyl)-2-(2,6-difluorophenyl)oxazole-4-carboxamide], for which, at human FLT4, the pIC50 was above 5.00.
As to `NC(=O)c1nc(-c2c(F)cccc2F)oc1-c1ccc(CNC(=O)c2cccs2)cc1` [Example L-3, 2-(2,6-difluorophenyl)-5-(4-((thiophene-2-carboxamido)methyl)phenyl)oxazole-4-carboxamide], the pIC50 on human FLT4 was above 5.00.
As to `COc1ccc(-c2oc(-c3cccs3)nc2C(N)=O)cc1` [Example M-1, 5-(4-methoxyphenyl)-2-(thiophen-2-yl)oxazole-4-carboxamide], on human FLT4, the pIC50 was above 5.00.
On the same count and under the same terms, under `COc1ccc(-c2oc(-c3ccsc3)nc2C(N)=O)cc1` [Example M-5, 5-(4-methoxyphenyl)-2-(thiophen-3-yl)oxazole-4-carboxamide] stands above 5.00; under `NC(=O)c1nc(-c2c(F)cccc2F)oc1-n1cnc2ccccc21` [Example Q-38, 5-(1H-benzo[d]imidazol-1-yl)-2-(2,6-difluorophenyl)oxazole-4-carboxamide], above 5.00.
As for `COc1cc(Nc2oc(-c3c(F)cccc3F)nc2C(N)=O)cc(OC)c1OC` [Example Q-40, 2-(2,6-difluorophenyl)-5-(3,4,5-trimethoxyphenylamino)oxazole-4-carboxamide], the pIC50 at human FLT4 is above 5.00.
Regarding `NC(=O)c1nc(Nc2cn[nH]c2)oc1-c1ccc(N2CCNCC2)cc1` [Example R-19, 2-(1H-pyrazol-4-ylamino)-5-(4-(piperazin-1-yl)phenyl)oxazole-4-carboxamide], at human FLT4, the pIC50 was above 5.00.
Take `NC(=O)c1nc(-c2c(F)cccc2F)oc1Nc1ccc(N)cc1` [Example V-1, 5-(4-aminophenylamino)-2-(2,6-difluorophenyl)oxazole-4-carboxamide]: on human FLT4, the pIC50 was above 5.00.
Consider `NC(=O)c1nc(-c2c(F)cccc2F)oc1-c1cccc(CN2CCOCC2)c1` [Example X-1, 2-(2,6-Difluorophenyl)-5-(3-(morpholinomethyl)phenyl)oxazole-4-carboxamide], for which the pIC50 at human FLT4 is above 4.00.
Regarding `NC(=O)c1nc(-c2c(F)cccc2F)oc1-c1cccc(CN2CCNC(=O)C2)c1` [Example X-2, 2-(2,6-Difluorophenyl)-5-(3-((3-oxopiperazin-1-yl)methyl)phenyl)oxazole-4-carboxamide], the pIC50 on human FLT4 is above 4.00.
Turning to `NC(=O)c1nc(-c2c(F)cccc2F)oc1-c1cccc(CN2CCNCC2)c1` [Example X-3, 2-(2,6-Difluorophenyl)-5-(3-(piperazin-1-ylmethyl)phenyl)oxazole-4-carboxamide formate salt], on human FLT4, the negative-log IC50 (pIC50) is above 4.00.
On to `NCC1CN(Cc2cccc(-c3oc(-c4c(F)cccc4F)nc3C(N)=O)c2)CCO1` (centres unmarked) [Example X-4, 5-(3-((2-(Aminomethyl)morpholino)methyl)phenyl)-2-(2,6-difluorophenyl)oxazole-4-carboxamide formate salt], for which, on human FLT4, the pIC50 was above 4.00.
